Entries after “also recorded” stand apart in the source; their conditions may differ.
Experiments:
hABHD6 = target: T1, hABHD6 (Homo sapiens, UniProt Q9BV23); assay: Hydrolase activity assay, hABHD6-HEK lysates; type: biochemical; conditions: hABHD6-HEK lysates; read-out: IC50
T1 construct: expressed in transfected cells; host or cells: HEK293
T1 sequence (Q9BV23 1-337): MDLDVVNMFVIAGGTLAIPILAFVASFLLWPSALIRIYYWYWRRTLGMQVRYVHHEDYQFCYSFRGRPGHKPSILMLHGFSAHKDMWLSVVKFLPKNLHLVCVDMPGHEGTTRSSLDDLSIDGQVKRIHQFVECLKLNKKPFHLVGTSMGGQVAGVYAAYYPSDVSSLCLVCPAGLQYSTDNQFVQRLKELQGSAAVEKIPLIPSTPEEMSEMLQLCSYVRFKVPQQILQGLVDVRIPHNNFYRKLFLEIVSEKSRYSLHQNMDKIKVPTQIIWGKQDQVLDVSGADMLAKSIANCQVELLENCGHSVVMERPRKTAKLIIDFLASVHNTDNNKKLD

hFAAH = target: T2, hFAAH (Homo sapiens, UniProt O00519); assay: FAAH activity assay, hFAAH-COS7 membranes (3H-anandamide); type: biochemical
T2 construct: expressed in transfected cells; host or cells: COS-7
T2 sequence (O00519 1-579): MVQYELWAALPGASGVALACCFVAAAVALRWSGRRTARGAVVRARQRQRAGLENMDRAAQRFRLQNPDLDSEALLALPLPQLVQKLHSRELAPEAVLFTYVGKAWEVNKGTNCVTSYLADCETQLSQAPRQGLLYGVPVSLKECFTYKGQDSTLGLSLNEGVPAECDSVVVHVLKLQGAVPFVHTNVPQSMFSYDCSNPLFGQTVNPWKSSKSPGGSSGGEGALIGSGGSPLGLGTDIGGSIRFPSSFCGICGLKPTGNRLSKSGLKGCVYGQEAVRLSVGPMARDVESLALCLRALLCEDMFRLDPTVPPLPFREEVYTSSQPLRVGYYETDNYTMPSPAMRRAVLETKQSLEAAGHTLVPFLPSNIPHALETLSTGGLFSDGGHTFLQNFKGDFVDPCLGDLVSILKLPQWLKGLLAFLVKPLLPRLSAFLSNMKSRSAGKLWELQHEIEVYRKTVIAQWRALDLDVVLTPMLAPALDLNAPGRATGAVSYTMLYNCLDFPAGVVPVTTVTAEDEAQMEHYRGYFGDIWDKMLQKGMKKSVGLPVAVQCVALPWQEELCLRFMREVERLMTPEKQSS

BAT5 = target: T3, BAT5 (Mus musculus, UniProt Q9Z1Q2); assay: Competitive ABPP, mouse brain membrane proteome: BAT5 band; conditions: tested concentration range 10^−8–10^−5 M
T3 sequence (Q9Z1Q2 1-558): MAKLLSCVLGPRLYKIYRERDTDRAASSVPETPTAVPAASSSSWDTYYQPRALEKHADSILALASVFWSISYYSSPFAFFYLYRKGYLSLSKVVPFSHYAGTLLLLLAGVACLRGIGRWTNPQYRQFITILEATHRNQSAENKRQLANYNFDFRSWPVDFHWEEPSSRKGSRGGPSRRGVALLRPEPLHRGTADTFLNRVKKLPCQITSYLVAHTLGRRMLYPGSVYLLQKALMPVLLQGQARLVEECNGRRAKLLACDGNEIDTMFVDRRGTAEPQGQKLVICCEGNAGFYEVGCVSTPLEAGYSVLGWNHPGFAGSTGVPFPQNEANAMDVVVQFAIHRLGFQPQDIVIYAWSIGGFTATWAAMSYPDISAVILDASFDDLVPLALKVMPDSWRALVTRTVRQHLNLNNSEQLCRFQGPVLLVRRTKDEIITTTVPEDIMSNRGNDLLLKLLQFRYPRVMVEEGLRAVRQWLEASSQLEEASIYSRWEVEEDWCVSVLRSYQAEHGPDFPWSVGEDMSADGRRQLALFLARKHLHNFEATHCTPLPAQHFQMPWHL

LYPLA1 = tested on: LYPLA1; set-up: method as in PMID 20418879; conditions: originally reported; read-out: IC50 in vitro towards LYPLA1; cited from earlier work
hBAT5 = target: T4, hBAT5 (Homo sapiens, UniProt O95870); assay: Inhibition of 1-LG hydrolysis in hBAT5-HEK293 lysates (fluorescent glycerol assay); type: biochemical; set-up: host or cells: HEK293; conditions: 1-LG 25 µM; 30 min inhibitor pretreatment; monitored 90 min; mean, n=3; read-out: IC50
T4 sequence (O95870 1-558): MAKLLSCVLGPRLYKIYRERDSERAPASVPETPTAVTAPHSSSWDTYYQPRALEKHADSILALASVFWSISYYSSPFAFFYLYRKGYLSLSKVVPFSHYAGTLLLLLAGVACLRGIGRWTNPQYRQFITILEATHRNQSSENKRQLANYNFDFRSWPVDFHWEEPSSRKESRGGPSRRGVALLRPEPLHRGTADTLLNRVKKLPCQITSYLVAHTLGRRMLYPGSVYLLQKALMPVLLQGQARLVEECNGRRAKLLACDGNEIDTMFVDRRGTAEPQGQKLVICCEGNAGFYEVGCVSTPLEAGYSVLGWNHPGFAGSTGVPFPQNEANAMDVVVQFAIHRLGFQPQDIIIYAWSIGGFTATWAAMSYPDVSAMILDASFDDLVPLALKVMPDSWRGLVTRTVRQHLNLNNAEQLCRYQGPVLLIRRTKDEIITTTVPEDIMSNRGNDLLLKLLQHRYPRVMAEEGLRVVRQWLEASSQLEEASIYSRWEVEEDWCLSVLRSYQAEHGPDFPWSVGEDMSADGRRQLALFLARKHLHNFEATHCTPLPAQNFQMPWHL

ABHD12 = target: T5, ABHD12 (Mus musculus, UniProt Q99LR1); assay: Competitive ABPP, mouse brain membrane proteome: ABHD12 band; conditions: tested concentration range 10^−8–10^−5 M
T5 sequence (Q99LR1 1-398): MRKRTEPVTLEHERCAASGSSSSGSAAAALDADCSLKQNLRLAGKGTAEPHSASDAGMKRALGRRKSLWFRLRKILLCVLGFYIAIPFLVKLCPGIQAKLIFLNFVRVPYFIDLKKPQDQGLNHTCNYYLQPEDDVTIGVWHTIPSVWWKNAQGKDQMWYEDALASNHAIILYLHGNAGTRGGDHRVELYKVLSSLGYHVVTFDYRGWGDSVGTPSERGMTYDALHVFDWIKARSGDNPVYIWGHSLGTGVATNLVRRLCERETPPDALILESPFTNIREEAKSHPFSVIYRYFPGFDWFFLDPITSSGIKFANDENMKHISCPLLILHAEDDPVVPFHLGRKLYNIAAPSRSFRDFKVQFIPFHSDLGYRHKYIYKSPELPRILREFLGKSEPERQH

IC50 (hABHD6): 52.5 nM | sensitivity of hFAAH (in words) (hFAAH): resistant | remaining activity at 1 µM (hFAAH; at 10^−6 M): 92.4% | IC50 (hBAT5): 100 nM
Compound: CCCCCCCCCC[C@@H]1C(=O)O[C@H]1CCc1ccc(OC)c(OC)c1 [Palmostatin B, palmostatin B]
inhibition of probe binding to BAT5 (BAT5): dose-dependently inhibited probe binding; also recorded: dose-dependently inhibits probe labeling | IC50 (LYPLA1): 670 nM | inhibition of probe binding to ABHD12 (ABHD12): dose-dependently inhibited probe binding; also recorded: dose-dependently inhibits probe labeling

— article PMC4188605, “Biochemical and Pharmacological Characterization of the Human Lymphocyte Antigen B-Associated Transcript 5 (BAT5/ABHD16A)” (PLoS ONE, 2014)
